In this experiment the target is T1, human alpha-7 nAChR (Homo sapiens, UniProt P36544).
T1 construct: expressed in transfected cells; host or cells: Xenopus laevis oocytes (cRNA injection)
Description: Two-electrode voltage clamp of alpha-7 nAChR expressed in Xenopus oocytes (net charge). As to conditions: area under the curve of current vs. time; for Charge Alone: compound alone acting as an allosteric agonist; for Charge +C: compound together with choline or ACh, includes PAM and ago-PAM activity. It is filed as cell-based. The procedure: The human alpha-7 nAChR receptor clone was obtained from Dr. Jon Lindstrom {University of Pennsylvania, Philadelphia, Pa.), aid the RIC-3 clone from Dr. Millet Treinin (Hebrew University, Jerusalem, Israel) for the purpose of co-injection with a7 to improve the level and speed of receptor expression (Halevi et al., 2003). After linearization and purification of cloned cDNA's, RNA, transcripts were prepared rising the appropriate mMessage mMachine kit tiom Ambion (Austin, Tex.).
Expression in X, laeivis Oocytes
Oocytes were obtained from mature (>9 cm) female Xenopus laeivis African frogs (Nasco, Ft. Atkinson, Wis.). Frogs were anesthetized in 0.7 g/L solution of ethyl 3-aminobenzoate methanesulfonate buffered with sodium bicarbonate, and oocytes were surgically removed through an abdominal incision. Harvested oocytes were treated with 1.25 mg/ml collagenase (Worthington Biochemicals, Freehold, N.J.) in calcium-free Barth's solution (88 mM NaCl, 1 mM KCl, 2.38 mM NaHCO3, 0.82 mM MgSO4, 15 mM HEPES, 12 mg/L tetracycline, pH 7.6) for 3-4 hours to remove the follicular layer. Stage-5 oocytes were isolated and injected with 50 nL (5-20 ng) of human alpha-7 and RIC-3 cRNA. Suitable levels of receptor expression were typically achieved 2-6 days after injection of cRNA. For experiments involving the PAM 4BP-TQS/GAT-107, where standard levels of expression result in ion currents too large to be recorded in voltage clamp, experiments were typically conducted 1-3 days after RNA injection.
Two-electrode voltage clamp experiments were conducted using OpusXpress6000A (Molecular Devices, Sunnyvale, Calif.), an integrated system that provides automated impalement and voltage clamp of up to eight oocytes in parallel. Both the current and voltage electrodes were filled with 3 M KCl, and oocytes were clamped at a holding potential of −60 mV. Data were collected at 50 Hz and filtered at 20 Hz. The oocytes were bath-perfused with Ringer's solution (115 mM NaCl, 10 mM HEPES, 2.5 mM KCl, 1.8 mM CaCl2, pH 7.3), and agonist solutions were delivered from a 96-well drug plate using disposable tips. Flow rates were set at 2 mL/min, with each drug or control solution delivered in 12 s durations, followed˜by 181 s washouts with Ringer's unless noted otherwise.
Experimental Protocols and Data Analysis
Responses of human alpha-7 receptors to agonists were measured as both peek current and net charge measured over a 120 s period beginning with the compound application (Papke and Papke, 2002). […] In experiments involving positive allosteric modulators (PAMs), the fast desensitization of alpha-7 was eliminated, allowing peak currents to be used as a valid measurement of the receptor-mediated responses (Wang et al., 2012; Williams et al., 2011).
Oocytes received two control ACh applications prior to receiving any drug in order to establish a steady reference response, and they received one or more control ACh applications at the end of all experiments. For experiments involving drug incubation through bath applications, all responses were normalized to the average of two ACh control responses taken immediately prior to the switch of bath solution, for each cell individually. These normalization procedures had the effect of compensating for differing levels of receptor expression among the multiple oocytes used in each experiment. Each experiment was conducted on at least four oocytes, with mean values and standard errors (S.E.M.) calculated from their normalized responses. […]
For orientation: Two-electrode voltage clamp holds a large cell at a set potential and records current.

T1 sequence (P36544 23-502): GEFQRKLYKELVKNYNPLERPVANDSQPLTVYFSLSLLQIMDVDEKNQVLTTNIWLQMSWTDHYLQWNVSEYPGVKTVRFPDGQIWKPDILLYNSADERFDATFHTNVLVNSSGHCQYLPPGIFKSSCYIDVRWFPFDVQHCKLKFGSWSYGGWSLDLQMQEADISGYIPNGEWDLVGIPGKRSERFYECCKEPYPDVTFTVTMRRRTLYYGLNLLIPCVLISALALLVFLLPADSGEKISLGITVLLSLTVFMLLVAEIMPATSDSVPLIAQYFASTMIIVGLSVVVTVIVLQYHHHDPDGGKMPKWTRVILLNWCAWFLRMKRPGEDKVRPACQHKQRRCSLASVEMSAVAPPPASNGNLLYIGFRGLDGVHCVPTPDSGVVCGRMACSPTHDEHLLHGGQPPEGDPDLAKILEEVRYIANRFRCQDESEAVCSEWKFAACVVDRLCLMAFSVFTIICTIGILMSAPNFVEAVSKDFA

With `NS(=O)(=O)c1ccc2c(c1)[C@H]1C=CC[C@H]1[C@@H](c1ccc(S(F)(F)(F)(F)F)cc1)N2` (stereo in doubt) [Compound 31, 4-(4-(pentafluoro-λ^6-sulfanyl)phenyl)-3a,4,5,9b-tetrahydro-3H-cyclopenta[c]quinoline-8-sulfonamide], the “Charge Alone” value is 89 and the “Charge +C” value was 206.
The matching figures for `NS(=O)(=O)c1ccc2c(c1)[C@H]1C=CC[C@H]1CN2` (stereo in doubt) [Compound 33, 3a,4,5,9b-tetrahydro-3H-cyclopenta[c]quinoline-8-sulfonamide]: “Inactive” and “Inactive”.
With `NS(=O)(=O)c1ccc2c(c1)[C@H]1C=CC[C@H]1[C@@H](c1csc(Br)c1)N2` (stereo in doubt) [Compound 35, 4-(5-bromothiophen-3-yl)-3a,4,5,9b-tetrahydro-3H-cyclopenta[c]quinoline-8-sulfonamide], the “Charge +C” value came to 157.
As to `NS(=O)(=O)c1ccc2c(c1)[C@H]1C=CC[C@H]1[C@@H](c1scc(Br)c1Br)N2` (stereo in doubt) [Compound 38, 4-(3,4-dibromothiophen-2-yl)-3a,4,5,9b-tetrahydro-3H-cyclopenta[c]quinoline-8-sulfonamide], the “Charge Alone” value is on record as 18 and the “Charge +C” value is 1246.
The corresponding values for `NS(=O)(=O)c1ccc2c(c1)[C@H]1C=CC[C@H]1[C@@H](c1csc3ccccc13)N2` (stereo in doubt) [Compound 39, 4-(benzo[b]thiophen-3-yl)-3a,4,5,9b-tetrahydro-3H-cyclopenta[c]quinoline-8-sulfonamide] are 22 and 145.
The corresponding values for `O=C(O)c1ccc2c(c1)[C@H]1C=CC[C@H]1[C@@H](c1ccc(Br)cc1)N2` (stereo in doubt) [Compound 40, 4-(4-bromophenyl)-3a,4,5,9b-tetrahydro-3H-cyclopenta[c]quinoline-8-carboxylic acid] are “Inactive” and “Inactive”.
The matching figures for `NS(=O)(=O)c1ccc2c(c1)[C@H]1C=CC[C@H]1[C@@H](c1cc3ccccc3s1)N2` (stereo in doubt) [Compound 41, 4-(benzo[b]thiophen-2-yl)-3a,4,5,9b-tetrahydro-3H-cyclopenta[c]quinoline-8-sulfonamide]: 3 and 528.
For `NS(=O)(=O)c1ccc2c(c1)[C@H]1C=CC[C@H]1[C@@H](c1c(F)c(F)c(F)c(F)c1F)N2` (stereo in doubt) [Compound 42, 4-(perfluorophenyl)-3a,4,5,9b-tetrahydro-3H-cyclopenta[c]quinoline-8-sulfonamide], the “Charge +C” value came to 47.
Still for that read-out and setting: next, `NS(=O)(=O)c1ccc2c(c1)[C@H]1C=CC[C@H]1[C@@H](c1ccccn1)N2` (stereo in doubt) [Compound 52, 4-(pyridin-2-yl)-3a,4,5,9b-tetrahydro-3H-cyclopenta[c]quinoline-8-sulfonamide]: 4; `NS(=O)(=O)c1ccc2c(c1)[C@H]1C=CC[C@H]1[C@@H](c1ccc(Br)c3ccccc13)N2` (stereo in doubt) [Compound 53, 4-(4-bromonaphthalen-1-yl)-3a,4,5,9b-tetrahydro-3H-cyclopenta[c]quinoline-8-sulfonamide]: 76.
`CCN(CC)S(=O)(=O)c1ccc2c(c1)[C@H]1C=CC[C@H]1[C@@H](c1ccc(Br)cc1)N2` (stereo in doubt) [Compound 55, 4-(4-bromophenyl)-N,N-diethyl-3a,4,5,9b-tetrahydro-3H-cyclopenta[c]quinoline-8-sulfonamide]: the “Charge Alone” value is on record as “Inactive” and the “Charge +C” value is “Inactive”.
As to `CCOC(=O)Nc1ccc([C@H]2Nc3ccc(S(N)(=O)=O)cc3[C@H]3C=CC[C@H]32)cc1` (stereo in doubt) [Compound 60, ethyl(4-(8-sulfamoyl-3a,4,5,9b-tetrahydro-3H-cyclopenta[c]quinolin-4-yl)phenyl)carbamate], the “Charge +C” value was determined as 276.
